Measurements as given in patent publication US4929602A, “Method of inhibiting platelet dependent arterial thrombosis” (Scripps Clinic and Research Foundation, priority 1988, dated 1990).

Tests used:
[1] = test system: primate model of vascular graft thrombosis; details: aspirin 32.5 mg/kg/day orally 2 hours prior to graft placement; previous studies; cited from earlier work
[2] = Blood and plasma determinations during dialyzer exposure (APTT, FPA, fibrinogen, cell counts, bleeding time, PF4, βTG, C3a); format: in vivo, baboon
Description: PPACK or standard heparin (from porcine intestinal mucosal, Invenex Laboratories, Chagrin Falls, Ohio) was infused into the arterial limb of the vascular shunt immediately proximal to the dialyzer.
Blood cell counts (platelets, white blood cells, and red blood cells) were performed on disodium EDTA anticoagulated whole blood using a J. T. Baker whole blood analyzer Model 810 (Allentown, Pa.). Hanson et al., J. Clin. Invest. 75:1591-99 (1985); and Hanson et al., Arteriosclerosis, 5:595-603 (1985). Standard template bleeding times, were performed on the shave volar surface of the forearm in a manner as described in Harker et al., New. Eng. J. Med., 287:155-59 (1972) and Malpass et al., Blood, 57:736-40 (1981). Bleeding times were done in duplicate and averaged. Commercially available radioimmunometric assays were carried out to measure plasma levels of platelet factor 4 (PF4) (Abbott Laboratories, North Chicago, Ill.), β-thromboglobulin (βTG) (Amersham Corporation, Arlington Heights, Ill.), fibrinopeptide A (FPA) (MICRO USA Inc., New York, N.Y.) and activated complement C3 antigen (C3a) (Amersham Corp.). Blood samples for these plasma assays were collected, processed and determined as described in the procedures of Example 1 and in Malpass et al., ibid. and Hanson et al., Arterosclerosis, 5:595-603 (1985). […] (APTT) were performed using a standard method (Activated PTT reagent, Ortho Diagnostics, Raritain, N.J.). A fibrometer (Fibrosystem, Division of Becton and Dickinson and Co., Cockeysville, […].) was used for endpoint clot detection as described in Biggs, R., Human Blood Coagulation, Haemostasis and Thrombosis, Oxford, Blackwell Scientific, pages 657-750 (1976). Fibrinogen was determined by a total clottable protein method described by Jacobsson K., Scand. J. Clin. Lab. Invest., 7(Suppl. 14):9-54 (1955).

[3] = Plasma activity levels of heparin (anti-Xa) and PPACK (antithrombin) during dialyzer study; format: in vivo, baboon; details: for level at 0.5 h / level at 1 h: plasma, 100 nmol/kg per min, Plasma PPACK; for level at 0.5 h: 30 min; for level at 1 h: 60 min
Description: Samples were centrifuged (2000×g, for 5 min) immediately after collection and the recovered plasma was frozen until assay. […] In some studies PPACK levels were determined at three sites: (i) systemic (ii) immediately proximal to the dialyzer but distal to the site of the PPACK infusion, and (iii) immediately distal to the dialyzer. Levels of heparin activity were determined by measuring the potentiating effect of heparin of plasma anti-Xa activity using a synthetic chromogenic substrate (Stachrom Heparin, Stago, France). Teien et al., Thrombo Research, 10:399-410 (1977).

[4] = PPACK concentration in the plasma during infusion (graft study); format: in vivo, baboon; details: intravenous infusion at 100 nmol/kg/min (about 15 minutes)
From the text: Methods for determining the concentration of a Formula (1) peptide in the plasma are well known in the art, a preferred method being that described by Collen et al., J. Lab. Clin. Med., 99:76-83 (1982), whose disclosures are incorporated herein by reference.

[5] = Plasma levels of PPACK (antithrombin activity) in carotid endarterectomy study; format: in vivo, baboon; details: iv
[6] = Collen et al., cited from earlier work
[7] = Template bleeding time and platelet count in carotid endarterectomy study (Example 2B); format: in vivo, baboon; details: treated animals, day 3
Description: […] The mean platelet count was 318±70×10^3 /μl in the control group and 296±53×10^3 /μl in the treated group.
Bleeding time measurements were performed in duplicate on the shaved volar surface of the forearm, using the standard template method as previously described for studies in baboons. Harker et al., Blood, 58:824-834 (1980).

Hemostatic Function = test system: Hemostatic Function; set-up: species or system baboon; details: in vivo
Description: After continuous infusion of a | given dose for 15 minutes (min.), the template bleeding time measurement | was begun and blood was drawn for thrombin time determinations. Escalatio | to the next dose was undertaken only after the bleeding time measurement | had been completed. The results are expressed as means ± one standard | deviation.

Row | platelet count ([2]; during dialyzer exposure) | C3a peak level ([2]; during dialyzer use) | white blood cell count, early fall ([2]; during dialyzer use) | PPACK systemic plasma level ([3]; 100 nmol/kg per min infused proximal to the dialyzer) | level at 0.5 h ([3]; Postdialyzer) | level at 1 h ([3]; Postdialyzer) | level at 0.5 h ([3]; Predialyzer) | level at 1 h ([3]; Predialyzer) | level at 0.5 h ([3]; Systemic) | level at 1 h ([3]; Systemic) | PPACK concentration in the plasma [4] | level at 1.5 h ([5]; 100 nmol/kg/min, 90 min after infusion) | level at 0.5 h ([5]; 30 min after infusion, 100 nmol/kg/min for about 1 hour) | Platelet counts [7] | platelet count (Hemostatic Function) | Compound | effect on vascular graft 111In-platelet deposition [1] | T50 removal rate from the circulation [6] | half-life of PPACK's ability to inhibit fibrin formation ([6]; rabbits) | effect on heart rate or blood pressure (Hemostatic Function)
1 |  |  |  |  |  |  |  |  |  |  |  |  |  |  |  | CC(=O)Oc1ccccc1C(=O)O [aspirin] | neither aspirin (32.5 mg/kg/day given orally 2 hours prior to graft placement) not aspirin combined with heparin (100 units/kg) affected |  |  | 
2 | 401 ± 17 × 10^3 /μL | 1989 ± 360 ng/mL | 5,900±810 cells/ul | 1.5 ± 0.06 µg/mL | 3900 ± 500 ng/mL | 4100 ± 1200 ng/mL | 3050 ± 550 ng/mL | 3650 ± 650 ng/mL | 1400 ± 400 ng/mL | 1600 ± 500 ng/mL | 1 to 2 µg/mL | 1120 ± 270 ng/mL | 3720 ± 610 ng/mL | 296±53 ×10^3 /μl | 269 ± 54 × 10^9 /L | N=C(N)NCCC[C@H](NC(=O)[C@@H]1CCCN1C(=O)[C@H](N)Cc1ccccc1)C(=O)CCl [PPACK, D-phenylalanyl-L-propyl-L-arginyl-chloromethyl ketone] |  | less than 3 min | about 2.9 minutes | No effect
